From ChEMBL document CHEMBL1147193, “New 5-substituted thiazolo[3,2-b][1,2,4]triazol-6-ones: synthesis and anticancer evaluation” (2007)
Blank lines part the entries; values can stand above or below the compound they belong to.

Tests used:
Format in all cases: functional
[1] = system: OVCAR-3; experiment: Growth inhibition of human OVCAR-3 cells after 48 hrs by SRB protein assay; conditions: OVCAR-3, 48 h; for TGI: read-out: Log TGI (converted)
[2] = system: OVCAR-8; experiment: Growth inhibition of human OVCAR8 cells after 48 hrs by SRB protein assay; conditions: OVCAR-8, 48 h; for TGI: read-out: Log TGI (converted)
[3] = system: SK-OV-3; experiment: Growth inhibition of human SK-OV-3 cells after 48 hrs by SRB protein assay; conditions: SK-OV-3, 48 h
[4] = system: 786-0; experiment: Growth inhibition of human 786-0 cells after 48 hrs by SRB protein assay; conditions: 786-0, 48 h; for TGI: read-out: Log TGI (converted)
[5] = system: ACHN; experiment: Growth inhibition of human ACHN cells after 48 hrs by SRB protein assay; conditions: for TGI: read-out: Log TGI (converted)
[6] = system: CAKI-1; experiment: Growth inhibition of human CAKI1 cells after 48 hrs by SRB protein assay; conditions: CAKI-1, 48 h; for TGI: read-out: Log TGI (converted)
[7] = system: A549; experiment: Growth inhibition of human A549/ATCC cells after 48 hrs by SRB protein assay; conditions: A549, 48 h; for TGI: read-out: Log TGI (converted)
[8] = system: IGROV-1; experiment: Growth inhibition of human IGROV1 cells after 48 hrs by SRB protein assay; conditions: IGROV-1, 48 h
[9] = system: CCRF-CEM; experiment: Growth inhibition of human CCRF-CEM cells after 48 hrs by SRB protein assay; conditions: for TGI: read-out: Log TGI (converted)
[10] = system: SW-620; experiment: Growth inhibition of human SW620 cells after 48 hrs by SRB protein assay; conditions: SW-620, 48 h; for TGI: read-out: Log TGI (converted)
[11] = system: BT-549; experiment: Growth inhibition of human BT549 cells after 48 hrs by SRB protein assay; conditions: BT-549, 48 h; for TGI: read-out: Log TGI (converted)
[12] = system: Hs-578T; experiment: Growth inhibition of human HS578T cells after 48 hrs by SRB protein assay; conditions: for TGI: read-out: Log TGI (converted)
[13] = system: RPMI-8226; experiment: Growth inhibition of human RPMI8226 cells after 48 hrs by SRB protein assay; conditions: RPMI-8226, 48 h; for TGI: read-out: Log TGI (converted)
[14] = system: NCI-H460; experiment: Anticancer activity against human NCI-H460 cells assessed as growth of cells at 100 uM relative to untreated cells
[15] = system: SF-268; experiment: Anticancer activity against human SF268 cells assessed as growth of cells at 100 uM relative to untreated cells
[16] = system: EKVX; experiment: Growth inhibition of human EKVX cells after 48 hrs by SRB protein assay; conditions: for TGI: read-out: Log TGI (converted)
[17] = system: HOP-62; experiment: Growth inhibition of human HOP62 cells after 48 hrs by SRB protein assay; conditions: HOP-62, 48 h; for TGI: read-out: Log TGI (converted)
[18] = system: NCI-H522; experiment: Growth inhibition of human NCI-H522 cells after 48 hrs by SRB protein assay; conditions: NCI-H522, 48 h
[19] = system: HCT-15; experiment: Growth inhibition of human HCT15 cells after 48 hrs by SRB protein assay; conditions: HCT-15, 48 h; for TGI: read-out: Log TGI (converted)
[20] = system: KM12; experiment: Growth inhibition of human KM12 cells after 48 hrs by SRB protein assay; conditions: KM12, 48 h; for TGI: read-out: Log TGI (converted)
[21] = system: SF-268; experiment: Growth inhibition of human SF268 cells after 48 hrs by SRB protein assay; conditions: SF-268, 48 h; for TGI: read-out: Log TGI (converted)
[22] = system: SF-295; experiment: Growth inhibition of human SF295 cells after 48 hrs by SRB protein assay; conditions: SF-295, 48 h; for TGI: read-out: Log TGI (converted)
[23] = system: LOX IMVI; experiment: Growth inhibition of human LOX IMVI cells after 48 hrs by SRB protein assay; conditions: for TGI: read-out: Log TGI (converted)
[24] = system: M14; experiment: Growth inhibition of human M14 cells after 48 hrs by SRB protein assay; conditions: M14, 48 h; for TGI: read-out: Log TGI (converted)
[25] = system: SK-MEL-2; experiment: Growth inhibition of human SK-MEL-2 cells after 48 hrs by SRB protein assay; conditions: SK-MEL-2, 48 h
[26] = system: SK-MEL-28; experiment: Growth inhibition of human SK-MEL-28 cells after 48 hrs by SRB protein assay; conditions: SK-MEL-28, 48 h; for TGI: read-out: Log TGI (converted)
[27] = system: SK-MEL-5; experiment: Growth inhibition of human SK-MEL-5 cells after 48 hrs by SRB protein assay; conditions: SK-MEL-5, 48 h; for TGI: read-out: Log TGI (converted)
[28] = system: UACC-62; experiment: Growth inhibition of human UACC62 cells after 48 hrs by SRB protein assay; conditions: UACC-62, 48 h; for TGI: read-out: Log TGI (converted)
[29] = system: RXF 393; experiment: Growth inhibition of human RXF393 cells after 48 hrs by SRB protein assay; conditions: RXF 393, 48 h; for TGI: read-out: Log TGI (converted)
[30] = system: UO-31; experiment: Growth inhibition of human UO31 cells after 48 hrs by SRB protein assay; conditions: UO-31, 48 h
[31] = system: SN12C; experiment: Growth inhibition of human SN12C cells after 48 hrs by SRB protein assay; conditions: for TGI: read-out: Log TGI (converted)
[32] = system: PC-3; experiment: Growth inhibition of human PC3 cells after 48 hrs by SRB protein assay; conditions: PC-3, 48 h; for TGI: read-out: Log TGI (converted)
[33] = system: MCF7; experiment: Growth inhibition of human MCF7 cells after 48 hrs by SRB protein assay; conditions: MCF7, 48 h; for TGI: read-out: Log TGI (converted)
[34] = system: NCI/ADR-RES; experiment: Growth inhibition of human NCI/ADR-RES cells after 48 hrs by SRB protein assay; conditions: for TGI: read-out: Log TGI (converted)
[35] = system: T47D; experiment: Growth inhibition of human T47D cells after 48 hrs by SRB protein assay; conditions: for TGI: read-out: Log TGI (converted)
[36] = Growth inhibition of human MDA-MB-231/ATCC cells after 48 hrs by SRB protein assay; conditions: MDA-MB-231, 48 h
[37] = system: OVCAR-5; experiment: Growth inhibition of human OVCAR5 cells after 48 hrs by SRB protein assay; conditions: OVCAR-5, 48 h
[38] = system: K562; experiment: Growth inhibition of human K562 cells after 48 hrs by SRB protein assay; conditions: K562, 48 h
[39] = system: NCI-H226; experiment: Growth inhibition of human NCI-H226 cells after 48 hrs by SRB protein assay; conditions: NCI-H226, 48 h
[40] = system: HCC 2998; experiment: Growth inhibition of human HCC2998 cells after 48 hrs by SRB protein assay; conditions: HCC 2998, 48 h

- GI50 [1]: 34.7 µM
- GI50 [2]: 25.7 µM
- GI50 [3]: > 100 µM
- GI50 [4]: 19.5 µM
- GI50 [5]: 21.9 µM
- GI50 [7]: > 100 µM
- GI50 [9]: 33.9 µM
- GI50 [10]: 3.24 µM
- GI50 [11]: 0.339 µM
- GI50 [13]: 20.9 µM
- GI50 [18]: 21.9 µM
- GI50 [19]: 33.1 µM
- GI50 [25]: 21.9 µM
- GI50 [26]: > 100 µM
- GI50 [27]: 22.9 µM
- GI50 [32]: 72.4 µM
- GI50 [33]: 36.3 µM
- GI50 [35]: 39.8 µM
Compound: O=C(CC1Sc2ncnn2C1=O)Nc1ccccc1 (stereo not given)
- TGI [1]: > 100 µM
- TGI [2]: 60.3 µM
- TGI ([3]; read-out: Log TGI (converted)): > 100 µM
- TGI [4]: 36.3 µM
- TGI [5]: 41.7 µM
- GI50 [6]: 23.4 µM
- TGI [6]: 49 µM
- TGI [7]: > 100 µM
- GI50 [8]: 25.7 µM
- TGI ([8]; read-out: Log TGI (converted)): 66.1 µM
- TGI [9]: 100 µM
- TGI [10]: 44.7 µM
- TGI [11]: 1 µM
- GI50 [12]: 12.3 µM
- TGI [12]: 45.7 µM
- TGI [13]: 64.6 µM
- Activity [14]: 0%
- Activity [15]: 110%
- TGI [16]: 64.6 µM
- GI50 [17]: > 100 µM
- TGI [17]: > 100 µM
- TGI ([18]; read-out: Log TGI (converted)): 42.7 µM
- TGI [19]: > 100 µM
- GI50 [20]: > 100 µM
- TGI [20]: > 100 µM
- GI50 [21]: > 100 µM
- TGI [21]: > 100 µM
- GI50 [22]: > 100 µM
- TGI [22]: > 100 µM
- GI50 [23]: 25.7 µM
- TGI [23]: 53.7 µM
- GI50 [24]: 21.9 µM
- TGI [24]: 45.7 µM
- TGI ([25]; read-out: Log TGI (converted)): 53.7 µM
- TGI [26]: > 100 µM
- TGI [27]: 47.9 µM
- GI50 [28]: > 100 µM
- TGI [28]: > 100 µM
- GI50 [29]: 18.6 µM
- TGI [29]: 42.7 µM
- GI50 [30]: 25.1 µM
- TGI ([30]; read-out: Log TGI (converted)): 57.5 µM
- GI50 [31]: 27.5 µM
- TGI [31]: 67.6 µM
- TGI [32]: > 100 µM
- TGI [33]: > 100 µM
- GI50 [34]: 63.1 µM
- TGI [34]: > 100 µM
- TGI [35]: > 100 µM
- GI50 [36]: 19.1 µM
- TGI ([36]; read-out: Log TGI (converted)): 38.9 µM

- GI50 [1]: 45.7 µM
- GI50 [37]: 17 µM
- GI50 [2]: > 100 µM
- GI50 [4]: 15.5 µM
- GI50 [5]: 17.4 µM
- GI50 [7]: > 100 µM
- GI50 [9]: 24.5 µM
- GI50 [10]: 38.9 µM
- GI50 [11]: 21.9 µM
- GI50 [13]: 4.57 µM
- GI50 [38]: 95.5 µM
- GI50 [39]: 26.3 µM
- GI50 [40]: 18.2 µM
- GI50 [19]: 20.9 µM
- GI50 [26]: 91.2 µM
- GI50 [27]: > 100 µM
- GI50 [32]: 18.2 µM
- GI50 [33]: 38.9 µM
- GI50 [35]: 23.4 µM
Compound: CCOC(=O)c1ccc(NC(=O)CC2Sc3ncnn3C2=O)cc1 (stereo not given)
- TGI [1]: > 100 µM
- TGI ([37]; read-out: Log TGI (converted)): 31.6 µM
- TGI [2]: > 100 µM
- TGI [4]: 28.8 µM
- TGI [5]: 31.6 µM
- GI50 [6]: 63.1 µM
- TGI [6]: > 100 µM
- TGI [7]: > 100 µM
- TGI [9]: 77.6 µM
- TGI [10]: > 100 µM
- TGI [11]: 43.7 µM
- GI50 [12]: > 100 µM
- TGI [12]: > 100 µM
- TGI [13]: 9.77 µM
- Activity [14]: 0%
- Activity [15]: 8%
- TGI ([38]; read-out: Log TGI (converted)): > 100 µM
- GI50 [16]: 28.2 µM
- TGI [16]: 69.2 µM
- GI50 [17]: 21.4 µM
- TGI [17]: 47.9 µM
- TGI ([39]; read-out: Log TGI (converted)): 66.1 µM
- TGI ([40]; read-out: Log TGI (converted)): 32.4 µM
- TGI [19]: 52.5 µM
- GI50 [20]: > 100 µM
- TGI [20]: > 100 µM
- GI50 [21]: > 100 µM
- TGI [21]: > 100 µM
- GI50 [22]: > 100 µM
- TGI [22]: > 100 µM
- GI50 [23]: 18.2 µM
- TGI [23]: 35.5 µM
- GI50 [24]: 18.6 µM
- TGI [24]: 34.7 µM
- TGI [26]: > 100 µM
- TGI [27]: > 100 µM
- GI50 [28]: 40.7 µM
- TGI [28]: > 100 µM
- GI50 [29]: 21.4 µM
- TGI [29]: 67.6 µM
- GI50 [31]: 26.3 µM
- TGI [31]: 87.1 µM
- TGI [32]: 40.7 µM
- TGI [33]: > 100 µM
- GI50 [34]: 18.2 µM
- TGI [34]: 36.3 µM
- TGI [35]: 57.5 µM
